# According to PubChem BioAssay AID330 (DTP/NCI, 2004):
# Values joined by “and” are separate entries in the source; they are usually repeats but may differ in a detail not shown here. Equal entries are not always repeated. Inconclusive results and toxic doses are left out.
# System: P388 leukemia ip, CD2F1 mice, survival T/C
# Assay: NCI In Vivo Anticancer Drug Screen. Data for tumor model P388 Leukemia (intraperitoneal) in CD2F1 (CDF1) mice
# Details: endpoint: median survival time, higher = longer survival
# Procedure, shortened: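 Mice carrying the transplanted tumor received test compound or vehicle. Survival was recorded in each group, and the value is the treated-group measurement divided by that of the vehicle-treated control group.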
# [1] = dose: 50.0 mg/kg/injection, schedule: Q01DX005 (ip), vehicle: saline
# [2] = dose: 100.0 mg/kg/injection, schedule: Q01DX005 (ip), vehicle: saline
# [3] = dose: 200.0 mg/kg/injection, schedule: Q01DX005 (ip), vehicle: saline
smiles,measurement,setting,value
CC(=O)[O][Pb]([O]C(C)=O)([c]1ccccc1)[c]1ccccc1,T/C,"dose: 6.25 mg/kg/injection, schedule: Q01DX009 (ip), vehicle: Klucel (hydroxypropylcellulose) (HPC)",121 % of control
same,T/C,"dose: 12.5 mg/kg/injection, schedule: Q01DX009 (ip), vehicle: Klucel (hydroxypropylcellulose) (HPC)",124 % of control
same,T/C,"dose: 17.8 mg/kg/injection, schedule: Q01DX009 (ip), vehicle: saline with Tween-80",114 % of control
same,T/C,"dose: 25.0 mg/kg/injection, schedule: Q01DX009 (ip), vehicle: Klucel (hydroxypropylcellulose) (HPC)",119 % of control
same,T/C,"dose: 30.0 mg/kg/injection, schedule: Q01DX009 (ip), vehicle: Klucel (hydroxypropylcellulose) (HPC)",104 % of control
same,T/C,"dose: 40.0 mg/kg/injection, schedule: Q01DX009 (ip), vehicle: saline with Tween-80",123 % of control
same,T/C,"dose: 45.0 mg/kg/injection, schedule: Q01DX009 (ip), vehicle: Klucel (hydroxypropylcellulose) (HPC)",112 % of control
same,T/C,"dose: 50.0 mg/kg/injection, schedule: Q01DX009 (ip), vehicle: Klucel (hydroxypropylcellulose) (HPC)",120 % of control
same,T/C,"dose: 65.0 mg/kg/injection, schedule: Q01DX009 (ip), vehicle: Klucel (hydroxypropylcellulose) (HPC)",107 % of control
same,T/C,"dose: 100.0 mg/kg/injection, schedule: Q01DX009 (ip), vehicle: Klucel (hydroxypropylcellulose) (HPC)",123 % of control
same,T/C,"dose: 150.0 mg/kg/injection, schedule: Q01DX009 (ip), vehicle: Klucel (hydroxypropylcellulose) (HPC)",150 % of control
N[C@@]1(C(F)(F)F)N[C@](N)(C(F)(F)F)C(F)(F)C(F)(F)C1(F)F,T/C,"dose: 6.25 mg/kg/injection, schedule: Q01DX005 (ip), vehicle: Klucel (hydroxypropylcellulose) (HPC)",102 % of control
same,T/C,"dose: 12.5 mg/kg/injection, schedule: Q01DX005 (ip), vehicle: Klucel (hydroxypropylcellulose) (HPC)",95 % of control
CCOC(=O)c1cnc(NCCCCNc2ncc(C(=O)OCC)c(=O)[nH]2)[nH]c1=O,T/C,"dose: 50.0 mg/kg/injection, schedule: Q01DX005 (ip), vehicle: Klucel (hydroxypropylcellulose) (HPC)",98 % of control
same,T/C,"dose: 100.0 mg/kg/injection, schedule: Q01DX005 (ip), vehicle: Klucel (hydroxypropylcellulose) (HPC)",90 % of control
same,T/C,"dose: 200.0 mg/kg/injection, schedule: Q01DX005 (ip), vehicle: Klucel (hydroxypropylcellulose) (HPC)",90 % of control
Cn1c(N)c(C(=O)Nc2ccccc2)c(=O)n(C)c1=O,T/C,"dose: 100.0 mg/kg/injection, schedule: Q01DX001 (ip), vehicle: Klucel (hydroxypropylcellulose) (HPC)",87 % of control
same,T/C,"dose: 200.0 mg/kg/injection, schedule: Q01DX001 (ip), vehicle: Klucel (hydroxypropylcellulose) (HPC)",88 % of control
CC(O)C([NH-])C(=O)O.CC([NH-])C(=O)O.[Cu+2] (centres undefined),T/C,"dose: 6.25 mg/kg/injection, schedule: Q01DX009 (ip), vehicle: saline",94 % of control
same,T/C,"dose: 12.5 mg/kg/injection, schedule: Q01DX009 (ip), vehicle: saline",97 % of control
same,T/C,"dose: 25.0 mg/kg/injection, schedule: Q01DX009 (ip), vehicle: saline",94 % of control
S=c1[nH]c(=S)c2[nH]cnc2[nH]1,T/C,"dose: 50.0 mg/kg/injection, schedule: Q01DX005 (ip), vehicle: saline with Tween-80",102 % of control
same,T/C,"dose: 100.0 mg/kg/injection, schedule: Q01DX005 (ip), vehicle: saline with Tween-80",100 % of control
same,T/C,"dose: 200.0 mg/kg/injection, schedule: Q01DX005 (ip), vehicle: saline with Tween-80",100 % of control
Nc1nc(N)c2nc(CNc3ccc(C(=O)NC(CCC(=O)O)C(=O)O)cc3)cnc2n1 (centres undefined),T/C,"dose: 0.03 mg/kg/injection, schedule: Q01DX009 (ip), vehicle: clinical formulation",105 % of control
same,T/C,"dose: 0.04 mg/kg/injection, schedule: Q01DX009 (ip), vehicle: clinical formulation",120 % of control
COC1(OC)C(C#N)(C#N)C2(C(=O)Nc3ccccc32)C1(OC)OC (centres undefined),T/C,"dose: 60.0 mg/kg/injection, schedule: Q01DX005 (ip), vehicle: Klucel (hydroxypropylcellulose) (HPC)",97 % of control
same,T/C,"dose: 120.0 mg/kg/injection, schedule: Q01DX005 (ip), vehicle: Klucel (hydroxypropylcellulose) (HPC)",101 % of control
same,T/C,"dose: 240.0 mg/kg/injection, schedule: Q01DX005 (ip), vehicle: Klucel (hydroxypropylcellulose) (HPC)",103 % of control
Nc1cccc(CCCCc2cccc(S(=O)(=O)F)c2)c1,T/C,"dose: 50.0 mg/kg/injection, schedule: Q01DX009 (ip), vehicle: saline sonified",100 % of control
same,T/C,"dose: 100.0 mg/kg/injection, schedule: Q01DX009 (ip), vehicle: saline sonified",109 % of control
same,T/C,"dose: 200.0 mg/kg/injection, schedule: Q01DX009 (ip), vehicle: saline sonified",109 % of control
COCC(=O)c1ccc(Cl)cc1,T/C,"dose: 50.0 mg/kg/injection, schedule: Q01DX009 (ip), vehicle: saline",105 % of control
same,T/C,"dose: 100.0 mg/kg/injection, schedule: Q01DX009 (ip), vehicle: saline",110 % of control and 96 % of control
same,T/C,"dose: 200.0 mg/kg/injection, schedule: Q01DX009 (ip), vehicle: saline",105 % of control and 107 % of control
C1COCCNCCOCCOCCN1,T/C,[1],95 % of control
same,T/C,[2],106 % of control
same,T/C,[3],95 % of control
CC(C)(C)N=C(CCC(C#N)(C#N)CCC(=NC(C)(C)C)Nc1c(Cl)cccc1Cl)Nc1c(Cl)cccc1Cl,T/C,"dose: 50.0 mg/kg/injection, schedule: Q01DX009 (ip), vehicle: saline with Tween-80",99 % of control
same,T/C,"dose: 100.0 mg/kg/injection, schedule: Q01DX009 (ip), vehicle: saline with Tween-80",92 % of control
same,T/C,"dose: 200.0 mg/kg/injection, schedule: Q01DX009 (ip), vehicle: saline with Tween-80",92 % of control
C[C@H]1C(=O)NC(=O)[C@@H]1C,T/C,[1],106 % of control
same,T/C,[2],100 % of control
same,T/C,[3],103 % of control
